What all share (assay type): cell-based
Data set [1] deals with human peripheral blood mononuclear cells (PBMC). Description: PBMC cytotoxicity assay (CellTiter-Glo). The note with it: cytotoxicity in stimulated PBMC, recorded as pCC50. A general note: In ATP-based viability assays light output follows the ATP content of the culture.
In data set [2] the target is indoleamine 2, 3-dioxygenase (IDO1) (Homo sapiens, UniProt P14902). Description: IDO1 HeLa RapidFire MS Assay (kynurenine by mass spectrometry). The note with it: HeLa cells stimulated with IFN-γ, 2 days; recorded as pIC50; read-out: IDO1 HeLa PXC50 (converted). As to the method: IDO1 HeLa RapidFire MS Assay
(§1) Compounds of the present invention were tested via high-throughput cellular assays utilizing detection of kynurenine via mass spectrometry and cytotoxicity as end-points. […] Compounds with IDO1 inhibitory properties decreased the amount of kynurenine produced by the cells via the tryptophan catabolic pathway. Cellular toxicity due to the effect of compound treatment was measured using CellTiter-Glo® reagent (CTG) (Promega Corporation, Madison, Wis.), which is based on luminescent detection of ATP, an indicator of metabolically active cells.
(§2) In preparation for the assays, test compounds were serially diluted 3-fold in DMSO from a typical top concentration of 1 mM or 5 mM and plated at 0.5 μL in 384-well, polystyrene, clear bottom, tissue culture treated plates with lids (Greiner Bio-One, Kremsmünster, Austria) to generate 11-point dose response curves. Low control wells (0% kynurenine or 100% cytotoxicity) contained either 0.5 μL of DMSO in the presence of unstimulated (−IFN-γ) HeLa cells for the mass spectrometry assay or 0.5 μL of DMSO in the absence of cells for the cytotoxicity assay, and high control wells (100% kynurenine or 0% cytotoxicity) contained 0.5 μL of DMSO in the presence of stimulated (+IFN-γ) HeLa cells for both the mass spectrometry and cytotoxicity assays.
(§3) Frozen stocks of HeLa cells were washed and recovered in DMEM high glucose medium with HEPES (Thermo Fisher Scientific, Inc., Waltham, Mass.) supplemented with 10% v/v certified fetal bovine serum (FBS) (Thermo Fisher Scientific, Inc., Waltham, Mass.), and 1× penicillin-streptomycin antibiotic solution (Thermo Fisher Scientific, Inc., Waltham, Mass.). The cells were diluted to 100,000 cells/mL in the supplemented DMEM medium. 50 μL of either the cell suspension, for the mass spectrometry assay, or medium alone, for the cytotoxicity assay, were added to the low control wells, on the previously prepared 384-well compound plates, resulting in 5,000 cells/well or 0 cells/well respectively. IFN-γ was added to the remaining cell suspension at a final concentration of 10 nM, and 50 μL of the stimulated cells were added to all remaining wells on the 384-well compound plates. The plates, with lids, were then placed in a 37° C., 5% CO2 humidified incubator for 2 days.
(§4) Following incubation, the 384-well plates were removed from the incubator and allowed to equilibrate to room temperature for 30 minutes. For the cytotoxicity assay, CellTiter-Glo® was prepared according to the manufacturer's instructions, and 10 μL were added to each plate well. After a twenty minute incubation at room temperature, luminescence was read on an EnVision® Multilabel Reader (PerkinElmer Inc., Waltham, Mass.). For the mass spectrometry assay, 10 μL of supernatant from each well of the compound-treated plates were added to 40 μL of acetonitrile, containing 10 μM of an internal standard for normalization, in 384-well, polypropylene, V-bottom plates (Greiner Bio-One, Kremsmünster, Austria) to extract the organic analytes. Following centrifugation at 2000 rpm for 10 minutes, 10 μL from each well of the acetonitrile extraction plates were added to 90 μL of sterile, distilled H2O in 384-well, polypropylene, V-bottom plates for analysis of kynurenine and the internal standard on the RapidFire 300 (Agilent Technologies, Santa Clara, Calif.) and 4000 QTRAP MS (SCIEX, Framingham, Mass.). MS data were integrated using Agilent Technologies' RapidFire Integrator software, and data were normalized for analysis as a ratio of kynurenine to the internal standard.

The test system of data set [3] is human epithelial HeLa cells. Description: HeLa cytotoxicity assay (CellTiter-Glo). The note with it: cytotoxicity in stimulated HeLa cells, recorded as pCC50. The procedure:
as §1, §2, §3, §4

Structures are written as SMILES.

Sequence of indoleamine 2, 3-dioxygenase (IDO1) (P14902 whole entry): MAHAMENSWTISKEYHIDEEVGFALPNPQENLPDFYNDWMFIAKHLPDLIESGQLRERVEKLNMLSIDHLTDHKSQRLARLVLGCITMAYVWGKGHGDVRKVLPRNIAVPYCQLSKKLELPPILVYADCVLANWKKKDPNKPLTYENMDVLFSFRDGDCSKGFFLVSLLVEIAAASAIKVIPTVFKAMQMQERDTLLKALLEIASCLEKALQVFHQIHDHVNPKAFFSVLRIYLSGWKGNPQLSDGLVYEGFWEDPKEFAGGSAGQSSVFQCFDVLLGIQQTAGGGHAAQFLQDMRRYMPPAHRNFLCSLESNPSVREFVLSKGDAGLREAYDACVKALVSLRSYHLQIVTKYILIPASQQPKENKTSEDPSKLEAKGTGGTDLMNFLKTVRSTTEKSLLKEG

`CC(C)CN(CC(C)C)c1ncc(C(C)CC(=O)O)cc1Nc1nc(C(F)(F)F)ns1` (centres unmarked) [Example 1, 3-(6-(diisobutylamino)-5-((3-(trifluoromethyl)-1,2,4-thiadiazol-5-yl)amino)pyridin-3-yl)butanoic acid]: in data set [1], the “PBMC_TOX PXC50” value was <5.0. Besides, in data set [2], the IC50 is 0.01 µM. In addition, the HELA_IDO1_TOX_PXC50 in data set [3] is reported as <5.

As for `CC(C)CN(c1ncc(C(C)CC(=O)O)cc1Nc1ccc(C(F)(F)F)cn1)C1CCOCC1` (centres unmarked) [Example 2, 3-(6-(isobutyl(tetrahydro-2H-pyran-4-yl)amino)-5-((5-(trifluoromethyl)pyridin-2-yl)amino)pyridin-3-yl)butanoic acid], the “PBMC_TOX PXC50” value in data set [1] is <5.0. Further, the IC50 in data set [2] is 0.01 µM. Moreover, in data set [3], the HELA_IDO1_TOX_PXC50 is <5.

`CC(C)CN(c1ncc([C@H](C)CC(=O)O)cc1Nc1ccc(Cl)nc1)C1CCOCC1` [Example 4, (R)-3-(5-((6-chloropyridin-3-yl)amino)-6-(isobutyl(tetrahydro-2H-pyran-4-yl)amino)pyridin-3-yl)butanoic acid]: in data set [1], the “PBMC_TOX PXC50” value is <5.0. Moreover, the IC50 in data set [2] is 0.01 µM. Moreover, the HELA_IDO1_TOX_PXC50 in data set [3] is reported as <5.

In the case of `CC(C)CN(c1ncc([C@H](C)CC(=O)O)cc1Nc1cnc(Cl)nc1)C1CCOCC1` [Example 5, (R)-3-(5-((2-chloropyrimidin-5-yl)amino)-6-(isobutyl(tetrahydro-2H-pyran-4-yl)amino)pyridin-3-yl)butanoic acid], the “PBMC_TOX PXC50” value in data set [1] was <5.0. The IC50 in data set [2] was 0.0158 µM. For the same molecule, in data set [3], the HELA_IDO1_TOX_PXC50 was <5.

In the case of `CC(C)CN(c1ncc([C@H](C)CC(=O)O)cc1Nc1ccc(Cl)c(F)n1)C1CCOCC1` [Example 7, (R)-3-(5-((5-chloro-6-fluoropyridin-2-yl)amino)-6-(isobutyl(tetrahydro-2H-pyran-4-yl)amino)pyridin-3-yl)butanoic acid], the “PBMC_TOX PXC50” value in data set [1] is listed as <5.0. The IC50 in data set [2] was 0.0126 µM. Besides, the HELA_IDO1_TOX_PXC50 in data set [3] is <5.

Turning to `CC(C)CN(c1ncc([C@H](C)CC(=O)O)cc1Nc1nc(C(F)(F)F)ns1)C1CC(F)(F)C1` [Example 20, (R)-3-(6-((3,3-difluorocyclobutyl)(isobutyl)amino)-5-((3-(trifluoromethyl)-1,2,4-thiadiazol-5-yl)amino)pyridin-3-yl)butanoic acid], in data set [1], the “PBMC_TOX PXC50” value is given as <5.0. For the same molecule, the IC50 in data set [2] is 0.0126 µM. For the same molecule, in data set [3], the HELA_IDO1_TOX_PXC50 is listed as <5.

As to `CC(C)CN(c1ncc(-c2ccccc2C(=O)O)cc1Nc1nc(C(F)(F)F)ns1)C1CCOCC1` [Example 29, 2-(6-(isobutyl(tetrahydro-2H-pyran-4-yl)amino)-5-((3-(trifluoromethyl)-1,2,4-thiadiazol-5-yl)amino)pyridin-3-yl)benzoic acid], the “PBMC_TOX PXC50” value in data set [1] is reported as <5.0. The IC50 in data set [2] is 0.0158 µM. Besides, the HELA_IDO1_TOX_PXC50 in data set [3] was <5.

Consider `CC(C)CN(c1ncc([C@H](C)CC(=O)O)cc1Nc1nc(Cl)ns1)C1CCC(F)(F)CC1` [Example 30, (R)-3-(5-((3-chloro-1,2,4-thiadiazol-5-yl)amino)-6-((4,4-difluorocyclohexyl)(isobutyl)amino)pyridin-3-yl)butanoic acid], for which, in data set [1], the “PBMC_TOX PXC50” value was <5.0. For the same molecule, the IC50 in data set [2] is 0.0398 µM. Moreover, in data set [3], the HELA_IDO1_TOX_PXC50 is given as <5.

`CC(C)CN(c1ncc(C(C)CC(=O)O)cc1Nc1nc(C(F)(F)F)ns1)C1CCOCC1` (centres unmarked) [Example 31, 3-{6-[(2-methylpropyl)(oxan-4-yl)amino]-5-{[3-(trifluoromethyl)-1,2,4-thiadiazol-5-yl]amino}pyridin-3-yl}butanoic acid]: the “PBMC_TOX PXC50” value in data set [1] is given as <5.0. Also, the IC50 in data set [2] was 0.00501 µM. Besides, in data set [3], the HELA_IDO1_TOX_PXC50 is reported as <5.

For the molecule `CC(C)CN(CC(C)C)c1ncc(C(C)CC(=O)O)cc1Nc1nc(Cl)ns1` (centres unmarked) [Example 32, 3-{6-[bis(2-methylpropyl)amino]-5-[(3-chloro-1,2,4-thiadiazol-5-yl)amino]pyridin-3-yl}butanoic acid], in data set [1], the “PBMC_TOX PXC50” value is listed as <5.0. Moreover, the IC50 in data set [2] was 0.631 µM. For the same molecule, the HELA_IDO1_TOX_PXC50 in data set [3] is <5.

Turning to `CC(C)CN(c1ncc(C(C)CC(=O)O)cc1Nc1ccc(C#N)cn1)C1CCOCC1` (centres unmarked) [Example 33, 3-{5-[(5-cyanopyridin-2-yl)amino]-6-[(2-methylpropyl)(oxan-4-yl)amino]pyridin-3-yl}butanoic acid], in data set [1], the “PBMC_TOX PXC50” value is <5.0. For the same molecule, the IC50 in data set [2] was 0.02 µM. For the same molecule, the HELA_IDO1_TOX_PXC50 in data set [3] was <5.

In the case of `CC(C)CN(c1ncc(C(C)CC(=O)O)cc1Nc1nc(Cl)ns1)C1CCOCC1` (centres unmarked) [Example 34, 3-{5-[(3-chloro-1,2,4-thiadiazol-5-yl)amino]-6-[(2-methylpropyl)(oxan-4-yl)amino]pyridin-3-yl}butanoic acid], in data set [1], the “PBMC_TOX PXC50” value was <5.0. In addition, the IC50 in data set [2] is 0.316 µM. Also, in data set [3], the HELA_IDO1_TOX_PXC50 is recorded as <5.

With `CC(C)CN(c1ncc(C(C)CC(=O)O)cc1Nc1ccc(Cl)cn1)C1CCOCC1` (centres unmarked) [Example 35, 3-{5-[(5-chloropyridin-2-yl)amino]-6-[(2-methylpropyl)(oxan-4-yl)amino]pyridin-3-yl}butanoic acid], the “PBMC_TOX PXC50” value in data set [1] is given as <5.0. For the same molecule, in data set [2], the IC50 was 0.00794 µM. The HELA_IDO1_TOX_PXC50 in data set [3] is given as <5.

Consider `CC(C)CN(c1ncc(C(C)CC(=O)O)cc1Nc1nnc(C2CC2)s1)C1CCOCC1` (centres unmarked) [Example 36, 3-{5-[(5-cyclopropyl-1,3,4-thiadiazol-2-yl)amino]-6-[(2-methylpropyl)(oxan-4-yl)amino]pyridin-3-yl}butanoic acid], for which the “PBMC_TOX PXC50” value in data set [1] is given as <5.0. In addition, the IC50 in data set [2] was 0.00794 µM.

As for `CC(C)CN(CC(C)C)c1ncc([C@H](C)CC(=O)O)cc1Nc1nc(C(F)(F)F)ns1` [Example 40, (3R)-3-{6-[bis(2-methylpropyl)amino]-5-{[3-(trifluoromethyl)-1,2,4-thiadiazol-5-yl]amino}pyridin-3-yl}butanoic acid], the “PBMC_TOX PXC50” value in data set [1] is on record as <5.6. For the same molecule, the IC50 in data set [2] is 0.00794 µM. Besides, in data set [3], the HELA_IDO1_TOX_PXC50 is listed as <5.

In the case of `C[C@H](CC(=O)O)c1cnc(N(CCCCCN)C2CCOCC2)c(Nc2ccc(Cl)cn2)c1` [Example 83, (3R)-3-{6-[(5-aminopentyl)(oxan-4-yl)amino]-5-[(5-chloropyridin-2-yl)amino]pyridin-3-yl}butanoic acid], the “PBMC_TOX PXC50” value in data set [1] is reported as <5.0. The IC50 in data set [2] is 0.01 µM. Further, in data set [3], the HELA_IDO1_TOX_PXC50 is on record as <5.

As for `C[C@H](CC(=O)O)c1cnc(N(CCCCCNC(=O)OC2CC/C=C/CCC2)C2CCOCC2)c(Nc2ccc(Cl)cn2)c1` (stereo partly drawn) [Example 84, (3R)-3-{5-[(5-chloropyridin-2-yl)amino]-6-{[5-({[(4E)-cyclooct-4-en-1-yloxy]carbonyl}amino)pentyl](oxan-4-yl)amino}pyridin-3-yl}butanoic acid], the “PBMC_TOX PXC50” value in data set [1] is <5.0. Further, the IC50 in data set [2] is 0.01 µM. In addition, the HELA_IDO1_TOX_PXC50 in data set [3] is on record as <5.

The record behind these values is patent US10787442B2, “Modulators of indoleamine 2,3-dioxygenase” (GLAXOSMITHKLINE INTELLECTUAL PROPERTY DEVELOPMENT LIMITED, priority 2016, dated 2020).
